Where “and” joins values, the source holds several entries; their conditions need not be identical. Equal values may be shown once. Marks after values point to notes of the source that are not given here. Ends that are not written are not given here.
These substances were tested against T1, Mammalian (Human) 20s Proteasome (Homo sapiens, UniProt P25788) (assay: Chymotrypsin-like (ChT-L) peptidase activity of 20S proteasome, N-succinyl-LLVY-AMC substrate). Conditions: I50, chymotrypsin-like activity, 15-minute pre-incubation, 1 hour at 37° C., pH 7.5, 0.03% SDS.
T1 construct: purchased Boston Biochem (Cambridge, Mass.)
Type: biochemical
Experimental: Determination of Enzymatic Activity. Mammalian (Human) 20s Proteasome was purchased from Boston Biochem (Cambridge, Mass.); substrate, N-succinyl-LLVY-AMC was purchased from SIGMA (St. Louis, Mo.); and negative control, Lactacystin, was purchased from SIGMA. […] Activity was determined by measuring the amount of a fluorescence observed upon release of the MCA group after a 1 hour incubation at 37° C. in 50 mM sodium phosphate buffer at pH 7.5 containing 0.03% SDS. Inhibition by PR-peptide was measured after a 15-minute pre-incubation at 37° C. of each peptide with 20S proteasome, followed by the addition of the substrate and the one hour incubation.

Row | Substance | IC50
1 | AAAPRPPYLPR [AAA, reference compound] | > 100000 nM

Same assay, conditions: chymotrypsin-like activity

Row | 20S proteasome inhibiting activity (in words) | Substance
2 | fully active | RRRPRPPYGPR [Peptide G9]
3 | behaved much the same as the Glu8 mutant | RRRPRPPELPRW [Peptide E8W12]
4 | did not noticeably alter PR11 activity | RRRPRPPYLPRW [Peptide W12]

Same assay, conditions: chymotrypsin-like activity, 15-minute pre-incubation, 1 hour at 37° C., pH 7.5, 0.03% SDS; read-out: I50

Row | IC50 | Substance
5 | 137 nM | RRRPRPPYGPR [Peptide G9]
6 | 543 nM | RKRPRPPYLPR [Peptide K2]
7 | 4 nM | H-RRRPRPPYLPRPRPPPFFPPRLPPRIPPGFPPRFPPRFP-OH [PR39, reference compound]
8 | 2370 nM | RRRPRPPELPR [Peptide E8]
9 | 805 nM | RRRPRPPYLPR [PR11, reference compound]

Continued, substance first:

Row | Substance | IC50
10 | RAAPRPPYLPR [RAA] | 20100 nM
11 | RRRPRPPELPRW [Peptide E8W12] | 2610 nM
12 | RRRARPPYLPR [Peptide A4] | 5000 nM and 4990 nM
13 | ARRPRPPYLPR [Peptide A1] | 2810 nM
14 | AARPRPPYLPR [AAR] | 14500 nM
15 | RARPRPPYLPR [Peptide A2] | 2770 nM
16 | RRRPRAPYLPR [Peptide A6] | 1220 nM
17 | RRRPRPPYLAR [Peptide A10] | 782 nM
18 | RRRPRPAYLPR [Peptide A7] | 851 nM
19 | ARAPRPPYLPR [ARA] | 11300 nM
20 | RRRPAPPYLPR [Peptide A5] | 2650 nM
21 | RRRPRPPYLPA [Peptide A11] | 685 nM

The substances below were run on genes regulating the NF-κB pathway in human umbilical vein endothelial cells (HUVEC) (assay: NF-κB pathway-specific gene expression microarray in HUVEC treated with PR peptides). Conditions: FIG. 1, averaged % inhibition over 13 down-regulated genes, relative to PR11.
Type: cell-based
Experimental: Cell Culture. Human umbilical vein endothelial cells (HUVEC, Cambrex Bio Science Walkersville, Inc., East Rutherford, N.J.) were cultured in endothelial cell basal medium-2 supplemented with EGM-2 SINGLEQUOTS (Cambrex Bio Science Walkersville, Inc.) and FBS. Confluent HUVEC, passage 3-5, were starved overnight in medium supplemented with 0.5% FBS, 0.25% BSA and incubated with PR peptides (1 μM) for 8 hours in starvation medium.
Total RNA Extraction and Gene Profiling by Microarray. Total RNA extraction was performed using the RNEASY mini kit protocol (QIAGEN, Valencia, Calif.). The quality and quantity of total RNA was determined using RNA 6000 Nano chips (Agilent Technology, Santa Clara, Calif.).
Gene profiling was performed using pathway-specific gene expression array for NF-κB signaling transduction (HS-016.2, SuperArray Bioscience Corp.). A total of 96 cDNA fragments from genes related to NF-κB mediated signal transduction, including: NF-κB/IκB family, NF-κB responsive genes (adhesion molecules, cytokines), extracellular ligands, transmembrane receptors, adaptor proteins, signal transduction kinases, and transcription factors were printed in tetraspot format on 3.8×4.8 cm nylon array membrane. Total RNA (0.5 μg) was reverse-transcribed into cDNA labeled with biotin-dUTP according to the manufacture's protocol. After overnight hybridization at 60° C., array membranes were treated with alkaline phosphate-conjugated streptavidin followed by chemiluminescent alkaline phosphate substrate CDP-star (Applied Biosystems, Foster City, Calif.) and exposed to X-ray film. The data were extracted from raw images using […] software (SuperArray, Bioscience Corp.). After background subtraction, the level of gene expression was determined as signal intensity units relative to total array intensity signal. Statistical significant altered genes (PR peptides vs. control) at P values <0.05 were analyzed by Student's t-test, 2-tailed distribution. The data were expressed as fold change PR peptides relative to controls (untreated cells kept in similar conditions).

Row | Substance | overall inhibitory effect on NF-κB pathway-related gene expression (in words)
22 | RKRPRPPYLPR [Peptide K2] | not significantly different than PR11
23 | RRRPRPPELPRW [Peptide E8W12] | reduced activity compared with PR11 or Trp12
24 | ARRPRPPYLPR [Peptide A1] | dramatically reduced PR11 activity
25 | RRRPRPPELPR [Peptide E8] | reduced activity compared with PR11 or Trp12
26 | RARPRPPYLPR [Peptide A2] | dramatically reduced PR11 activity

Same assay, conditions: HUVEC, NF-κB array of 96 genes

Row | Substance | number of genes whose expression was significantly affected
27 | RRRPRPPYLPR [PR11, reference compound] | 16 genes

Same assay, conditions: HUVEC, PR peptides 1 μM, 8 hours, relative to untreated controls

Row | Substance | AKT1 gene expression | ATF2 gene expression | CREB1 gene expression | ELK3 gene expression | JNK1 gene expression | MEK4 gene expression | MEKK1 gene expression | MEKK2 gene expression | NF-κB1 gene expression | NF-κB2 gene expression
28 | RKRPRPPYLPR [Peptide K2] | 1.6 fold change | −2.0^# fold change | −2.6 fold change | 1.5* fold change | −3.1 fold change | −9.3^# fold change | −5.3* fold change | −1.7 fold change | −2.1 fold change | −1.5 fold change
29 | RRRPRPPELPRW [Peptide E8W12] | 1.8* fold change | −1.8* fold change | −1.5 fold change | 1.0 fold change | −1.8 fold change | −2.4* fold change | −1.7 fold change | −1.1 fold change | −1.6 fold change | −1.3 fold change
30 | ARRPRPPYLPR [Peptide A1] | 1.3 fold change | −1.4* fold change | −1.4 fold change | 0.9 fold change | −1.1 fold change | −0.9 fold change | −1.0 fold change | −1.2 fold change | −1.1 fold change | −1.1 fold change
31 | RRRPRPPELPR [Peptide E8] | 0.8 fold change | −1.6* fold change | −1.9 fold change | ^−1.8^# fold change | −1.2 fold change | −1.2 fold change | −1.0 fold change | −1.3 fold change | −1.7 fold change | −1.4 fold change
32 | RRRPRPPYLPRW [Peptide W12] | 2.5^# fold change | −2.7^# fold change | −1.6 fold change | 1.3^# fold change | −5.3* fold change | −4.0^# fold change | −4.6* fold change | −2.4^# fold change | −2.6 fold change | −1.9* fold change
33 | RRRPRPPYLPR [PR11, reference compound] | 3.0* fold change | −2.1* fold change | −2.1* fold change | 1.9* fold change | −6.5^# fold change | −3.1* fold change | −2.9* fold change | −2.6* fold change | −4.1* fold change | −3.3^# fold change
34 | RARPRPPYLPR [Peptide A2] | 1.4 fold change | −1.2 fold change | −1.4 fold change | 1.0 fold change | −1.5 fold change | −1.9 fold change | −1.8 fold change | −0.9 fold change | −1.2 fold change | −0.8 fold change

Same assay, conditions: HUVEC, PR peptides 1 μM, 8 hours, relative to untreated controls

Row | Substance | P38 MAPK gene expression | RANK gene expression | RIP gene expression | TAK1 gene expression | TBK1 gene expression | TRAF6 gene expression
35 | RKRPRPPYLPR [Peptide K2] | −1.4 fold change | 1.1 fold change | −2.8* fold change | −2.1* fold change | −4.6^# fold change | −2.5 fold change
36 | RRRPRPPELPRW [Peptide E8W12] | −1.1 fold change | 1.8^# fold change | −1.5 fold change | −1.2 fold change | −1.6* fold change | −1.2 fold change
37 | ARRPRPPYLPR [Peptide A1] | −1.1 fold change | 1.2 fold change | −0.9 fold change | −1.4* fold change | −1.4* fold change | −1.1 fold change
38 | RRRPRPPELPR [Peptide E8] | −1.5 fold change | 1.5 fold change | −3.6* fold change | −1.7* fold change | −2.3^# fold change | −1.2 fold change
39 | RRRPRPPYLPRW [Peptide W12] | −2.5^# fold change | 2.1^# fold change | −5.5* fold change | −2.0^# fold change | −4.7^# fold change | −3.1* fold change
40 | RRRPRPPYLPR [PR11, reference compound] | −3.6^# fold change | 1.5* fold change | −10.4^# fold change | −9.2^# fold change | −2.8^# fold change | −2.4* fold change
41 | RARPRPPYLPR [Peptide A2] | −0.9 fold change | 1.4 fold change | −1.1 fold change | −0.8 fold change | −1.3 fold change | −1.1 fold change

Same assay, conditions: HUVEC, of the 13 down-regulated genes of Tables 5 and 6

Row | Substance | number of significantly reduced genes
42 | RKRPRPPYLPR [Peptide K2] | 6 genes

From patent US8030446B2, “Mutant proline-and-arginine rich peptides and methods for using the same” (Trustees of Dartmouth College, priority 2006, dated 2011)
